In ChEMBL document CHEMBL1201862, “PubChem BioAssay data set” (2004):
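Step 1: Grow cells in 96-well plates. Step 2: Expose to compound for 48 hours at 5 concentrations. Step 3: Interpolate endpoints linearly; if unreached, use highest concentration. The concentration for 50% growth inhibition is given as GI50.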 The source made the active and inactive calls. Cut-off read from the data, not from the text of the source: active = GI50 up to about 1.1 µM and inactive = higher.

What was measured:
Assay in all cases: growth of human tumour cells (NCI), 48 h
[1] = test system: SN12C
[2] = test system: ACHN
[3] = test system: UACC-257
[4] = test system: NCI-H226
[5] = test system: OVCAR-3
[6] = test system: NCI-H460
[7] = test system: RXF 393
[8] = test system: SF-295
[9] = test system: SF-268
[10] = test system: LOX IMVI
[11] = test system: HCT-15
[12] = test system: NCI-H23
[13] = test system: SK-MEL-28
[14] = test system: SK-MEL-2
[15] = test system: IGROV-1
[16] = test system: SNB-75
[17] = test system: A549
[18] = test system: KM12
[19] = test system: HL-60

Structure (SMILES)	GI50 [1]	GI50 [2]	GI50 [3]	GI50 [4]	GI50 [5]	GI50 [6]	GI50 [7]	GI50 [8]	GI50 [9]	GI50 [10]	GI50 [11] [µM]	GI50 [12]	GI50 [13]	GI50 [14]	GI50 [15]	GI50 [16]	GI50 [17]	GI50 [18]	GI50 [19]
Cc1ccc(/C(=C/C=C(C#N)C#N)Sc2cc(Cl)ccc2Cl)cc1	3.22 µM (inactive)	2.7 µM (inactive)	2.78 µM (inactive)	3.02 µM (inactive)	3.06 µM (inactive)	4.31 µM (inactive)	7.29 µM (inactive)	3.43 µM (inactive)	5.97 µM (inactive)	1.01 µM (active)	3.06	3.85 µM (inactive)	8.57 µM (inactive)	8.75 µM (inactive)	8.41 µM (inactive)	17 µM (inactive)	9.98 µM (inactive)	4.78 µM (inactive)	
C[N+](C)(C)C1=NNC2=Nc3ccccc3SC2=C1	21.9 µM (inactive)	16 µM (inactive)	23 µM (inactive)	11.8 µM (inactive)	19.3 µM (inactive)	19 µM (inactive)	20.4 µM (inactive)	9.42 µM (inactive)	35 µM (inactive)	18.8 µM (inactive)	17.5	28.9 µM (inactive)	19.4 µM (inactive)	14.1 µM (inactive)	17 µM (inactive)		23.9 µM (inactive)	23.9 µM (inactive)	54.1 µM (inactive)
O=C1C=C(Nc2cc(Cl)ccc2Cl)c2ccccc2C1=O	38.5 µM (inactive)	26.1 µM (inactive)	24 µM (inactive)	23.9 µM (inactive)	23 µM (inactive)	25.9 µM (inactive)	55.5 µM (inactive)	25.1 µM (inactive)	64.3 µM (inactive)		26.5	20.7 µM (inactive)	38.6 µM (inactive)	15.4 µM (inactive)	64.1 µM (inactive)	25.9 µM (inactive)	35.9 µM (inactive)	23 µM (inactive)	15.8 µM (inactive)
c1ccc2c(c1)[nH]c1nc3cc(-c4ccc5nc6c(nc5c4)[nH]c4ccccc46)ccc3nc12	> 100 µM (inactive)	> 52.8 µM (inactive)	> 100 µM (inactive)	> 100 µM (inactive)		> 33.5 µM (inactive)	> 100 µM (inactive)	> 100 µM (inactive)	> 100 µM (inactive)	> 39.9 µM (inactive)		> 59 µM (inactive)	> 100 µM (inactive)	> 100 µM (inactive)	> 100 µM (inactive)	> 100 µM (inactive)	> 100 µM (inactive)	> 100 µM (inactive)	20.9 µM (inactive)
CN(Cc1ccccc1)C1(N(C)Cc2ccccc2)CC1	> 100 µM (inactive)	> 100 µM (inactive)	> 100 µM (inactive)	> 100 µM (inactive)	> 100 µM (inactive)	> 100 µM (inactive)	> 100 µM (inactive)	> 100 µM (inactive)	> 100 µM (inactive)	> 100 µM (inactive)	> 100	> 100 µM (inactive)	> 100 µM (inactive)	> 100 µM (inactive)	> 100 µM (inactive)	> 100 µM (inactive)	> 100 µM (inactive)	> 100 µM (inactive)	> 100 µM (inactive)
COc1cc(/C=C/C(=O)N[C@@H]2C(=O)N3[C@@H]2SC(C)(C)[C@@H]3C(=O)O)cc(OC)c1OC	> 100 µM (inactive)	> 100 µM (inactive)	> 100 µM (inactive)	> 100 µM (inactive)	> 100 µM (inactive)	> 100 µM (inactive)	> 100 µM (inactive)	> 100 µM (inactive)	> 100 µM (inactive)	> 100 µM (inactive)	> 100	> 100 µM (inactive)	> 100 µM (inactive)	> 100 µM (inactive)		> 100 µM (inactive)	> 100 µM (inactive)	> 100 µM (inactive)	> 100 µM (inactive)
C/C(=C(/C)c1cc[n+](C)cc1)c1cc[n+](C)cc1	> 75 µM (inactive)	> 75 µM (inactive)	> 75 µM (inactive)		9.12 µM (inactive)	> 75 µM (inactive)	> 75 µM (inactive)	> 75 µM (inactive)	> 75 µM (inactive)	43.6 µM (inactive)	52.7	> 75 µM (inactive)	> 75 µM (inactive)	> 75 µM (inactive)	34.4 µM (inactive)	> 75 µM (inactive)	> 75 µM (inactive)	> 75 µM (inactive)	> 75 µM (inactive)
NC(Cc1cc(I)c(Oc2ccc(O)c(I)c2)c(I)c1)C(=O)O (stereo not drawn) [RATHYRONINE]	> 100 µM (inactive)	> 100 µM (inactive)	> 100 µM (inactive)	> 100 µM (inactive)	> 100 µM (inactive)		> 100 µM (inactive)	> 100 µM (inactive)	42.6 µM (inactive)	34.8 µM (inactive)	> 100	> 100 µM (inactive)	38.9 µM (inactive)	19.9 µM (inactive)	73.1 µM (inactive)	54.3 µM (inactive)	> 100 µM (inactive)	> 100 µM (inactive)	
